Measurements reported in PMC4183567, “Cysteine Transport through Excitatory Amino Acid Transporter 3 (EAAT3)” (PLoS ONE, 2014).
Values joined by “and” are separate entries in the source; they are usually repeats but may differ in a detail not shown here. Equal values may be shown once.

Legend:
EAAT3 [1] = target: T1, EAAT3 (Homo sapiens, UniProt P43005); assay: Two-electrode voltage clamp transport currents in Xenopus oocytes expressing EAAT3; format: cell-based; conditions: 1 mM substrate vs 1 mM glutamate, EAAT3 oocytes, -60 mV
T1 sequence (P43005 1-524): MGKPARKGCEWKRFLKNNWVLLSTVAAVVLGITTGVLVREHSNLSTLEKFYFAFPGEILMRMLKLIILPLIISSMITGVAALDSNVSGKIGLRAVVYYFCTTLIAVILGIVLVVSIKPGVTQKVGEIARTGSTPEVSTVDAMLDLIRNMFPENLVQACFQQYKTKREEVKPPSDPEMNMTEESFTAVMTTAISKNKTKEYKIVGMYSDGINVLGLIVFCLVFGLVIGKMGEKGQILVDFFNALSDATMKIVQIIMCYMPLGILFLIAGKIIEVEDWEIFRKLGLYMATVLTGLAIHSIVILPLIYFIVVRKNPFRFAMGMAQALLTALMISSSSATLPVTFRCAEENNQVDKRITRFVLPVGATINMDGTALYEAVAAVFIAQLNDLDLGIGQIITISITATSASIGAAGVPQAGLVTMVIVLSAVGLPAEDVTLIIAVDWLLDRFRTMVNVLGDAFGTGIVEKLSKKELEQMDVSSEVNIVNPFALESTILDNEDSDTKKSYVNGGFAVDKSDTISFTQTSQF
Experimental: (§1) mRNA from linearized pOTV-EAAT1, pOTV-EAAT2 and pOTV-EAAT3 was generated as previously described and resuspended in RNAase-free water and used for oocytes injections. Xenopus oocytes where injected with 50 nl of mRNA and incubated at 18°C in 96 mM NaCl, 2 mM KCl, 1.8 mM CaCl2, 1.0 mM MgCl2, 5 mM HEPES, pH 7.4 (ND96) supplemented with 2.5 mM Sodium Pyruvate and Gentamicyn for 2 to 3 days prior to using in electrophysiological recordings and radio-labeled transport experiments.
(§2) Oocytes were held at −60 mV, and currents elicited by 200 ms voltage steps between −120 mV and +60 mV were filtered at 2 kHz (−3dB) and digitalized with a sampling rate of 10 kHz using a Digidata AD/DA converter (Molecular Devices, Sunnyvale, CA, USA). Borosilicate pipets where filled with 3 M KCl and typical resistances where 0.2 to 1 MΩ. Transport currents were determined at −60 mV in a gluconate-based ND96 solution. In order to dialyze internal chloride, oocytes were incubated 12 to 24 hours in the gluconate solution. Anion currents were determined at positive potentials (+60 mV) after exchanging the external solution to NO3-based ND96 (replacement of 96 mM NaCl with 96 mM NaNO3) solution in the absence or in the presence of 1 mM external substrates. In experiments using cysteine as a substrate, all solutions contained 2 mM dithiothreitol (DTT). Data were analyzed with a combination of pClamp 9.2 (Axon Instrument) and Sigma Plot (Jandel Scientific, San Rafael, CA, USA). Whole cell current amplitudes are shown without any subtraction protocol. Current-voltage relationships were constructed by plotting the isochronal current 6 ms after the voltage step versus the membrane potential. All data are given as the mean ± standard deviation of the mean (SDM). For evaluation the statistical relevance, the Student’s t-Test was used with an α of 0.05.

EAAT1 = target: T2, EAAT1 (Homo sapiens, UniProt P43003); assay: Two-electrode voltage clamp transport currents in Xenopus oocytes expressing EAAT1; format: cell-based; conditions: 1 mM substrate vs 1 mM glutamate, -60 mV
T2 construct: expressed in transfected cells; host or cells: Xenopus oocytes injected with mRNA
Experimental: as §1
as §2, with “In experiments using cysteine as a substrate, all solutions contained 2 mM dithiothreitol (DTT).” left out, “Whole cell current amplitudes are shown without any subtraction protocol. Current-voltage relationships were constructed by plotting the isochronal current 6 ms after the voltage step versus the membrane potential. All data are given as the mean ± standard deviation of the mean (SDM). For evaluation the statistical relevance, the Student’s t-Test was used with an α of 0.05.” left out

EAAT2 [2] = target: T3, EAAT2 (Homo sapiens, UniProt P43004); assay: Two-electrode voltage clamp transport currents in Xenopus oocytes expressing EAAT2; format: cell-based; conditions: 1 mM substrate vs 1 mM glutamate, -60 mV
Experimental: as §1
as §2, with “In experiments using cysteine as a substrate, all solutions contained 2 mM dithiothreitol (DTT).” left out, “Whole cell current amplitudes are shown without any subtraction protocol. Current-voltage relationships were constructed by plotting the isochronal current 6 ms after the voltage step versus the membrane potential. All data are given as the mean ± standard deviation of the mean (SDM). For evaluation the statistical relevance, the Student’s t-Test was used with an α of 0.05.” left out

EAAT3 and ASCT1 [3] = assay: Release of preloaded [35S]-L-cysteine from Xenopus oocytes co-expressing EAAT3 and ASCT1; format: cell-based, human
Experimental: mRNA from linearized pOTV-EAAT1, pOTV-EAAT2 and pOTV-EAAT3 was generated as previously described and resuspended in RNAase-free water and used for oocytes injections.
(§3) Oocytes were washed 3 times in ND96 buffer followed by incubation for 10 min with non-radiolabeled substrates as indicated. The supernatant was removed and collected for scintillation counting, while the oocytes were lysed in 1% sodium dodecylsulfate (SDS). The oocytes lysate and supernatant were counted separately by liquid scintillation counting to determine both retained and released radioactivity respectively. Percent of released radioactivity was determined as a function of the released/(retained + released).

EAAT3 and ASCT1 [4] = target: T4, EAAT3 and ASCT1 (Homo sapiens, UniProt P43005); assay: Release of preloaded [3H]-L-glutamate from Xenopus oocytes co-expressing EAAT3 and ASCT1; format: cell-based; conditions: extracellular cysteine, concentration not given
T4 construct: expressed in transfected cells; host or cells: Xenopus oocytes
T4 sequence (P43005 1-524): T1 sequence (P43005 1-524)
Experimental: as §1, §3

[5] = Protonation state calculated with the Henderson-Hasselbalch equation; format: physicochemical
EAAT2 [6] = system: EAAT2; parameters: method as in PMID 8782106; conditions: EAAT2, low affinity; read-out: Km for cysteine transport; cited from earlier work
EAAT3 [7] = system: EAAT3; parameters: method as in PMID 8782106; conditions: EAAT3 vs other EAATs; cited from earlier work
EAAT2 [8] = target: T3, EAAT2; assay: Substrate inhibition of [3H]-L-glutamate uptake in HEK293 cells expressing EAAT2; format: cell-based; parameters: expressed in transfected cells; host or cells: HEK293; conditions: read-out: inhibition of glutamate transport; EAAT2 HEK293 cells, 1 mM inhibitor
Experimental: (§4) For radiolabeled transport experiments, 2×10^6 cells were transfected in 1 mL of Opti-Mem (Life Technologies) using 6 µL of Lipofectamine 2000 (Invitrogen) with 1 µg pCMV-EAAT2 or pCMV-EAAT3 DNA and plated at 5×10^4 cells/well in 24 well Costar (Corning) plates with 0.5 mL DMEM culture media prepared as above. Following transfection and plating, cells were cultured 2–3 days prior to [^3H]-L-Glutamate transport experiments.
(§5) Transport was allowed to proceed for 10 min and was terminated by 3 washes with cold perfusion buffer. Cells were lysed with 1% SDS/0.1N NaOH and radioactivity determined by scintillation counting. Data analysis was performed using Graphpad Prism (Graphpad Software Inc.).

EAAT3 [9] = target: T1, EAAT3; assay: Substrate inhibition of [3H]-L-glutamate uptake in HEK293 cells expressing EAAT3; format: cell-based; parameters: expressed in transfected cells; host or cells: HEK293
Experimental: as §4, §5

EAAT2 [10] = target: T3, EAAT2; assay: mEGFPpH fluorescence imaging of intracellular pH in HEK293 cells co-expressing EAAT2; format: cell-based; parameters: expressed in transfected cells; host or cells: HEK293
Excerpt: (§6) Cells expressing mEGFPpH were imaged with a Zeiss Axiovert 135T inverted microscope with a 40X NeoFluar oil immersion objective (NA1.3). A Lambda DG4 (Sutter Instrument Co.) equipped with a xenon arc lamp was used for high-speed excitation wavelength switching. Images were collected using either a Quantix (Roper Scientific, Tucson, AZ) or an Orca ER (Hammamatsu Co.) cooled CCD. For pH imaging experiments, the fluorescence filters (Omega Optical) were: excitation 405±20 and 485±7.5; dichroic 400-480-585DLRP; emission 510±11.5. Software control and data acquisition were accomplished using Axon Imaging Workbench (INDEC Biosystems) or OpenLab acquisition software (Improvision, Perkin Elmer). Cells were incubated at room temperature with continuous perfusion using standard buffer containing (in mM): 146 NaCl, 5 KCl, 5 HEPES, 2.5 CaCl2 and 1.2 MgCl2 at pH 7.35 with additions (substrates etc.) as indicated in figure legends. Acquisition exposure times were identical for both 405 nm and 485 nm excitation wavelengths adjusted so that the 510 emission was not saturated for either excitation wavelength. Prior to perfusion with buffers containing substrates, cells were perfused in standard buffer to achieve a stable base line. Fluorescence was reported as the ratio of fluorescence at 510 nm by excitation with 485 and 405 nm wavelengths (F485/F405).

EAAT3 [11] = target: T1, EAAT3; assay: mEGFPpH fluorescence imaging of intracellular pH in HEK293 cells co-expressing EAAT3; conditions: EAAT3 HEK293 cells
Excerpt: as §6

T3 sequence (P43004 whole entry): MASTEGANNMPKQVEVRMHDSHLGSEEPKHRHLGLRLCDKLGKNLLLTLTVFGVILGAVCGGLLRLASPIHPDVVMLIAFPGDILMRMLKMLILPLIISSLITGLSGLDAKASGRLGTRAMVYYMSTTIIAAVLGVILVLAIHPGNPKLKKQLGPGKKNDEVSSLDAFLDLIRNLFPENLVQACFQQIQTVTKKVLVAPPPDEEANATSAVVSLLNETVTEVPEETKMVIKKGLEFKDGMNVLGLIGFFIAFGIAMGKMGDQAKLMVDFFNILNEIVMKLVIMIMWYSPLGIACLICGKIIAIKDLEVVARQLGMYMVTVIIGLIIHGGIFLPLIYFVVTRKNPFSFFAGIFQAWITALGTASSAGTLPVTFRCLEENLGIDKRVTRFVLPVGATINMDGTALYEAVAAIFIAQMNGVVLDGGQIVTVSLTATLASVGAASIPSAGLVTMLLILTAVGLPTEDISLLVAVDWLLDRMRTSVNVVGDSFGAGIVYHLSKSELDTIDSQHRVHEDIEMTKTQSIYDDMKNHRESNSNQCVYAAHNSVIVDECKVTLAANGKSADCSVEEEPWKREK
T2 sequence (P43003 whole entry): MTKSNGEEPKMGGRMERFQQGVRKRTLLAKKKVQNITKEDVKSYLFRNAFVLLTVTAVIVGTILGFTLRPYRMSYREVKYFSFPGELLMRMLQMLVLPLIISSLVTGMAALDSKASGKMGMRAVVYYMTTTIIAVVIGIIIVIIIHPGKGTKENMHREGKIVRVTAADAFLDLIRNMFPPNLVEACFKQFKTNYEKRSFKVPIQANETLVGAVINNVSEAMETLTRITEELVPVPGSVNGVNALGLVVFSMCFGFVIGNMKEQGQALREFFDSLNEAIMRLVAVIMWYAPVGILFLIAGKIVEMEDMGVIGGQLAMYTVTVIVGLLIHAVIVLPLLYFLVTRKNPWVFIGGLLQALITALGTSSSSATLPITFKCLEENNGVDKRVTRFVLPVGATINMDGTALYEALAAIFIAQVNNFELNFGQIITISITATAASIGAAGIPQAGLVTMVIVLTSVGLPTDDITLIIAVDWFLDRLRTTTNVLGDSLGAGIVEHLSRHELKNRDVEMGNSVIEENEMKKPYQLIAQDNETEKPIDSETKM

Structure (SMILES): N[C@@H](CS)C(=O)O [cysteine, L-cysteine]
- transport current amplitude relative to glutamate transport current (EAAT3 [1]): 86±14%
- transport current amplitude relative to glutamate transport current (EAAT1): 33±1.5%
- transport current amplitude relative to glutamate transport current (EAAT2 [2]): 7.0±4.2%
- fold increase of [35S]-cysteine release over that released by glutamate application (EAAT3 and ASCT1 [3]; 300 µM cysteine vs 100 µM glutamate): 5 fold
- release of preloaded [35S]-L-cysteine (EAAT3 and ASCT1 [3]; 300 µM extracellular substrate, 10 min): 10%
- release of loaded [3H]-L-glutamate (EAAT3 and ASCT1 [4]): 7.5%
- fraction in thiolate form ([5]; pH 6.9): ~3.8% and 4%
- fraction in thiolate (R-S-) form ([5]; pH 8.5): ~61%
- fraction in thiolate form ([5]; pH = 7.5): ~14%
- fraction protonated ([5]; physiological pH): ~90%
- Km (EAAT2 [6]): > 1000 µM
- fold higher apparent affinity for transport (Km) than the other members of the family (EAAT3 [7]): approximately 10 fold
- inhibition at 1000 µM (EAAT2 [8]): 20%
- IC50 (EAAT3 [9]): 631 ± 50 µM
- inhibition at 1000 µM (EAAT3 [9]; read-out: inhibition of glutamate uptake, EAAT3 HEK293 cells, 1 mM inhibitor): 70%
- mEGFPpH fluorescence change (EAAT2 [10]; 1 mM perfusion): did not produce observable fluorescence changes from baseline
- slope of fluorescence change normalized to that of 100 µM glutamate (EAAT2 [10]; selenocysteine at 100 µM): no observable fluorescence changes
- mEGFPpH fluorescence change (EAAT3 [11]; 1 mM perfusion): increase in mEGFPpH fluorescence
- slope of fluorescence change normalized to that of 100 µM glutamate (EAAT3 [11]; selenocysteine at 100 µM, cysteine change opposite in direction): 0.28±0.03
